Laboratory results taken from PubChem BioAssay AID2060500 (Molecular Pharmacology Branch, DTP, NCI, 2025).

Tested on: 596521-263-R-J1-PDC complex spheroids, viability % of control
Assay: Anticancer human tumor 596521-263-R-J1-PDC patient-derived soft tissue sarcoma cell line growth inhibition [GQUAD]
Settings: for IC50: curve of first compound; for viability, T/C: stronger effect = lower value
Method in brief: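 Multi-cell-type spheroids of tumor cells with HUVEC and mesenchymal stem cells, treated with drug combinations. Concentrations descend in half-log steps from near clinical Cmax, or from 10 microM where Cmax is unknown; viability read-out.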

[1] = second compound 0.0316 µM, first compound 0.0316 µM
[2] = second compound 0.0316 µM, first compound 0.316 µM
[3] = second compound 0.1 µM, first compound 0.0316 µM
[4] = second compound 0.1 µM, first compound 0.316 µM
[5] = second compound 0.316 µM, first compound 0.0316 µM
[6] = second compound 0.316 µM, first compound 0.316 µM
[7] = second compound 1 µM, first compound 0.0316 µM
[8] = second compound 1 µM, first compound 0.316 µM
[9] = second compound 3.16 µM, first compound 0.0316 µM
[10] = second compound 3.16 µM, first compound 0.316 µM
[11] = second compound 10 µM, first compound 0.0316 µM
[12] = second compound 10 µM, first compound 0.316 µM
[13] = second compound 0.0316 µM, first compound 0.1 µM
[14] = second compound 0.0316 µM, first compound 1 µM
[15] = second compound 0.0316 µM, first compound 3.16 µM
[16] = second compound 0.0316 µM, first compound 10 µM
[17] = second compound 0.1 µM, first compound 0.1 µM
[18] = second compound 0.1 µM, first compound 1 µM
[19] = second compound 0.1 µM, first compound 3.16 µM
[20] = second compound 0.1 µM, first compound 10 µM
[21] = second compound 0.316 µM, first compound 0.1 µM
[22] = second compound 0.316 µM, first compound 1 µM
[23] = second compound 0.316 µM, first compound 3.16 µM
[24] = second compound 0.316 µM, first compound 10 µM
[25] = second compound 1 µM, first compound 0.1 µM
[26] = second compound 1 µM, first compound 1 µM
[27] = second compound 1 µM, first compound 3.16 µM
[28] = second compound 1 µM, first compound 10 µM
[29] = second compound 3.16 µM, first compound 0.1 µM
[30] = second compound 3.16 µM, first compound 1 µM
[31] = second compound 3.16 µM, first compound 3.16 µM
[32] = second compound 3.16 µM, first compound 10 µM
[33] = second compound 10 µM, first compound 0.1 µM
[34] = second compound 10 µM, first compound 1 µM
[35] = second compound 10 µM, first compound 3.16 µM
[36] = second compound 10 µM, first compound 10 µM
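Note: spheroids exposed to drugs for 7 days before viability reading.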
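Throughout, for viability, T/C: 100% = DMSO vehicle control viability.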

CCc1c2c(nc3ccc(O)cc13)-c1cc3c(c(=O)n1C2)COC(=O)[C@]3(O)CC + Cc1cnc(CNC(=O)c2c(=O)c3ccc(N4CCCN(C)CC4)nc3n3c2sc2ccccc23)cn1 showed an IC50 (second compound 0.0316 µM) of 8.62 nM, an IC50 (second compound 0.1 µM) of 8.15 nM and an IC50 (second compound 0.316 µM) of 9.24 nM. It also gave an IC50 (second compound 1 µM) of 13.2 nM, an IC50 (second compound 3.16 µM) of 6.43 nM and an IC50 (second compound 10 µM) of less than 0.999 nM. For the same molecule, the viability, T/C (second compound 0.0316 µM, first compound 0.000999 µM) was 57.6%, the viability, T/C (second compound 0.0316 µM, first compound 0.00316 µM) was 59.2% and the viability, T/C (second compound 0.0316 µM, first compound 0.00999 µM) was 44.3%. The viability, T/C [1] was 40%, the viability, T/C (second compound 0.0316 µM, first compound 0.0999 µM) was 17.4% and the viability, T/C [2] was 7.92%. The viability, T/C (second compound 0.1 µM, first compound 0.000999 µM) was 58.6%, the viability, T/C (second compound 0.1 µM, first compound 0.00316 µM) was 56.8% and the viability, T/C (second compound 0.1 µM, first compound 0.00999 µM) was 49.3%. It also gave a viability, T/C [3] of 34.1%, a viability, T/C (second compound 0.1 µM, first compound 0.0999 µM) of 21.3% and a viability, T/C [4] of 8.98%. The viability, T/C (second compound 0.316 µM, first compound 0.000999 µM) was 71.6%, the viability, T/C (second compound 0.316 µM, first compound 0.00316 µM) was 55.4% and the viability, T/C (second compound 0.316 µM, first compound 0.00999 µM) was 49.9%. For the same molecule, the viability, T/C [5] was 40.5%, the viability, T/C (second compound 0.316 µM, first compound 0.0999 µM) was 21.2% and the viability, T/C [6] was 7.27%. For the same molecule, the viability, T/C (second compound 1 µM, first compound 0.000999 µM) was 63.8%, the viability, T/C (second compound 1 µM, first compound 0.00316 µM) was 61.7% and the viability, T/C (second compound 1 µM, first compound 0.00999 µM) was 52.6%. It also gave a viability, T/C [7] of 40.1%, a viability, T/C (second compound 1 µM, first compound 0.0999 µM) of 24.1% and a viability, T/C [8] of 6.45%. It also gave a viability, T/C (second compound 3.16 µM, first compound 0.000999 µM) of 55.8%, a viability, T/C (second compound 3.16 µM, first compound 0.00316 µM) of 55% and a viability, T/C (second compound 3.16 µM, first compound 0.00999 µM) of 47.6%. The viability, T/C [9] was 37.3%, the viability, T/C (second compound 3.16 µM, first compound 0.0999 µM) was 23.2% and the viability, T/C [10] was 0.26%. The viability, T/C (second compound 10 µM, first compound 0.000999 µM) was 47.2%, the viability, T/C (second compound 10 µM, first compound 0.00316 µM) was 37.1% and the viability, T/C (second compound 10 µM, first compound 0.00999 µM) was 39.6%. The viability, T/C [11] was 32.5%, the viability, T/C (second compound 10 µM, first compound 0.0999 µM) was 4.57% and the viability, T/C [12] was 0.24%.
COc1cc(C2c3cc4c(cc3C(OC3OC5COC(C)OC5C(O)C3O)C3COC(=O)C23)OCO4)cc(OC)c1O (stereo unspecified) + CN(C)c1ccc(Nc2c3ccc(NC(=O)CCN4CCCC4)cc3nc3cc(NC(=O)CCN4CCCC4)ccc23)cc1 gave an IC50 (second compound 0.0316 µM) of 3590 nM, an IC50 (second compound 0.1 µM) of 8190 nM and an IC50 (second compound 0.316 µM) greater than 10000 nM. For the same molecule, the IC50 (second compound 1 µM) was 2750 nM, the IC50 (second compound 3.16 µM) was 3120 nM and the IC50 (second compound 10 µM) was 4290 nM. The viability, T/C [1] was 101%, the viability, T/C [13] was 96.2% and the viability, T/C [2] was 84.5%. It also gave a viability, T/C [14] of 59.8%, a viability, T/C [15] of 56.8% and a viability, T/C [16] of 40.3%. For the same molecule, the viability, T/C [3] was 111%, the viability, T/C [17] was 96.6% and the viability, T/C [4] was 85%. For the same molecule, the viability, T/C [18] was 70.6%, the viability, T/C [19] was 57.8% and the viability, T/C [20] was 48.5%. The viability, T/C [5] was 96.4%, the viability, T/C [21] was 107% and the viability, T/C [6] was 82.7%. For the same molecule, the viability, T/C [22] was 67.2%, the viability, T/C [23] was 56.8% and the viability, T/C [24] was 47.8%. The viability, T/C [7] was 95.9%, the viability, T/C [25] was 92.8% and the viability, T/C [8] was 94.6%. It also gave a viability, T/C [26] of 72.3%, a viability, T/C [27] of 47% and a viability, T/C [28] of 46.6%. The viability, T/C [9] was 95.9%, the viability, T/C [29] was 94.9% and the viability, T/C [10] was 85%. The viability, T/C [30] was 63.9%, the viability, T/C [31] was 49.7% and the viability, T/C [32] was 46.6%. The viability, T/C [11] was 68%, the viability, T/C [33] was 63.6% and the viability, T/C [12] was 67.1%. The viability, T/C [34] was 55.5%, the viability, T/C [35] was 54% and the viability, T/C [36] was 42.9%.
CC1COCCN1c1cc(-c2ccnn2C)c2ccnc(-c3ccn[nH]3)c2n1 (stereo unspecified) + Cc1[nH]c2ccc(F)cc2c1-c1nc2c3cccnc3c3ncccc3c2[nH]1 showed an IC50 (second compound 0.0316 µM) of 395 nM, an IC50 (second compound 0.1 µM) of 510 nM and an IC50 (second compound 0.316 µM) of 317 nM. For the same molecule, the IC50 (second compound 1 µM) was 553 nM, the IC50 (second compound 3.16 µM) was 602 nM and the IC50 (second compound 10 µM) was 289 nM. The viability, T/C [1] was 84.3%, the viability, T/C [13] was 61.8% and the viability, T/C [2] was 55.6%. The viability, T/C [14] was 40.1%, the viability, T/C [15] was 32.5% and the viability, T/C [16] was 26%. It also gave a viability, T/C [3] of 81.3%, a viability, T/C [17] of 69.5% and a viability, T/C [4] of 52%. It also gave a viability, T/C [18] of 41.8%, a viability, T/C [19] of 37.9% and a viability, T/C [20] of 23.2%. It also gave a viability, T/C [5] of 75.9%, a viability, T/C [21] of 57.2% and a viability, T/C [6] of 50%. For the same molecule, the viability, T/C [22] was 43.2%, the viability, T/C [23] was 31.8% and the viability, T/C [24] was 25.3%. It also gave a viability, T/C [7] of 71%, a viability, T/C [25] of 62.5% and a viability, T/C [8] of 57.1%. The viability, T/C [26] was 43.5%, the viability, T/C [27] was 34.3% and the viability, T/C [28] was 26%. The viability, T/C [9] was 67.3%, the viability, T/C [29] was 62.4% and the viability, T/C [10] was 53.2%. The viability, T/C [30] was 47.8%, the viability, T/C [31] was 36.3% and the viability, T/C [32] was 26.1%. The viability, T/C [11] was 64.5%, the viability, T/C [33] was 57% and the viability, T/C [12] was 49.6%. For the same molecule, the viability, T/C [34] was 40.9%, the viability, T/C [35] was 32.9% and the viability, T/C [36] was 25.4%.
